# In patent US20140163082A1, “PYRAZOLYL COMPOUNDS FOR USE IN REVERSING REACTIVE GLIOSIS” (priority 2011, published 2014):
# Test system: R28 cells
# Experiment: Real time RT-PCR analysis, in vitro, R28
# Assay type: cell-based, rat
# Procedure: A transformed Müller cell line [rMC-1] were grown in cell cultures in DMEM supplemented with 15% FBS, as well as with a fungicide mixture and 0.5% gentamicin in a humidified atmosphere of 5% CO2/95% air. Medium was changed every 2-3 days, and cells were grown to confluence in a 150-mm dish. Cells were split into 60-mm dishes and were used in the experiments when confluent. […] cells are immortalized rat retinal neurosensory/neuoroglial progenitor cells, by transfection with Adenovirus 12S E1A into the neonatal retinal tissue. […] cells express genes characteristic of neurons, as well as functional neuronal properties. […] cells were cultured in DMEM/F12 medium in a 1:1 mixture, supplemented with 5% FBS, 1.5 mM L-glutamine, 7.5 mM sodium pyruvate, 0.1 mM nonessential amino acids, 1×MEM, 0.37% sodium bicarbonate and 10 μg/ml gentamicin. Cells were incubated at 37° C. in the presence of 5% CO2. Human retinal microvascular endothelial cells [[…]][40,000 cells/well] were seeded in a 96-well plate and allowed to adhere overnight and incubated at 37° C. in normoxia. Cells were then cultured in 150 μl of CS-C medium supplemented with 10% FBS and in the presence of 1-100 μM YC-1 or DMSO [0.2%]. Cells were placed in airtight chambers [BioSpherix, Redfield, N.Y.] and the O2 tension was maintained at 1.2% by using Pro-Ox Model 110 O2 regulator [BioSpherix, Redfield, N.Y.]. The chamber was purged with a gas mixture of 5.32% CO2, and 93.48% N2. […] We used the primers summarized in [FIG. 6C] for RT-PCR. Gene-specific molecular beacons and primers were designed to encompass the genes of interest, with beacon's annealing site to overlap with the exon-exon junctions for additional specificity [Beacon Designer 6.0, Premier Biosoft International, Palo Alto, Calif., USA]. Threshold cycle [Ct] values for the different samples were utilized for the calculation of gene expression fold change using the formula 2 to the minus power of delta delta ct. Fold changes in the HIF-1, VEGF, PDGF-B, GFAP and iNOS gene relative to the β-actin endogenous control gene were determined by the following equation: fold change=2-Δ[ΔC T], where change in threshold cycle [ΔCT]=CT [gene of interest]-CT [β-actin] and Δ [ΔCT]=ΔCT [treated]-ΔCT [untreated].
# [1] = R28, hypoxia 48 hours, YC-1 25-100 μM, vs DMSO-treated hypoxic cells
structure (smiles),measurement,setting,value
"OCc1ccc(-c2nn(Cc3ccccc3)c3ccccc23)o1 [YC-1, 3-(5′-hydroxymethyl-2′-furyl)-1-benzylindazole]",PDGF-B mRNA level,[1],significant dose-dependent attenuations
same,VEGF mRNA level,[1],significant dose-dependent attenuations
same,iNOS mRNA level,[1],significant dose-dependent attenuations
same,GFAP mRNA level,"R28, hypoxia, YC-1 25-100 μM, vs DMSO-treated hypoxic cells, normalized to β-actin",significant dose-dependent attenuations
same,HIF-1α message level,"R28, pre- vs post-YC-1 treatment",no differences
